# According to patent US20240166591A1, “Pharmaceutical Products Based on Cannabinoid Acid Esters” (priority 2021, published 2024):
# Columns and labels:
# [1] = tested on: SK-BR-3 cancer cell line (human breast cancer cell line); test: MTT cytotoxicity assay, SK-BR-3 cancer cell line; assay type: cell-based; details: for EC50: cancer cell line SKBR3
# Description: (§1) The cytotoxic activity of CBDA methyl esters, CBCA CBGA and THCA was studied by the in vitro MTT colorimetric process (Mosmann, T. et al. J. Immunol. Methods. 1983; 65: 55-63). This method, which is widely used to measure cellular metabolic activity as an indicator of cell viability, division and cytotoxicity, is based on the reduction of a yellow salt of tetrazole ((3-(4,5-dimethylthiazol-2-yl)-2). 5-diphenyltetrazolium bromide or MTT) in violet formazan crystals from metabolically active cells.
# (§2) Briefly for this cytotoxicity test, the SK-BR-3 cancer cell line (human breast cancer cell line), the MCF-7 cancer cell line (human breast cancer cell line), and the A2058 cancer cell line […]) and the cancer line SKMEL28 (melanoma line). All cell lines were tested at 20% v/v O2, in the presence of 10% FBS after 48 h or 72 h of incubation.
# [2] = tested on: breast cancer cells MDA-MB-231; details: cited from earlier work
# cyclooxygenase-2 = details: MDA-MB-231; cited from earlier work
# normal MCF10A cells = test: Cytotoxic activity in normal MCF10A cells compared to SK-BR-3; assay type: cell-based; details: FIG. 3
# Description: FIG. 3. Comparison of the cytotoxic activity of CBDA methyl ester in SK-BR-3 cancer cells compared to the cytotoxic activity in normal MCF10A cells.
# as §1
# [3] = tested on: A2058 cancer cell line (melanoma); test: MTT cytotoxicity assay, A2058 cancer cell line; assay type: cell-based
# Description: as §1, §2
# SKMEL28 (melanoma line) = test: MTT cytotoxicity assay, SKMEL28 cancer line; assay type: cell-based
# Description: as §1, §2
# [4] = tested on: MCF-7 cancer cell line (human breast cancer cell line); test: MTT cytotoxicity assay, MCF-7 cancer cell line; assay type: cell-based; details: MCF7 cell line
# Description: as §1, §2
# [5] = MTT, incubation time not stated (48 h or 72 h)
smiles,measurement,setting,value
"CCCCCc1cc2c(c(O)c1C(=O)OC)C=CC(C)(CCC=C(C)C)O2 (stereo not shown) [CBCA-Me, CBCA methyl ester]",EC50,[1]; [5],35 µM
"C=C(C)[C@@H]1CCC(C)=C[C@H]1c1c(O)cc(CCCCC)c(C(=O)O)c1O [CBDA, Cannabidiolic acid]",cell migration,[2],inhibit cell migration
same,expression of cyclooxygenase-2,cyclooxygenase-2,enhance the expression of cyclooxygenase-2
"C=C(C)[C@@H]1CCC(C)=C[C@H]1c1c(O)cc(CCCCC)c(C(=O)OC)c1O [CBDA-Me, CBDA methyl ester]",effect on SK-BR-3 cancer cells compared with normal MCF10A cells,normal MCF10A cells,much stronger effect on SK-BR-3 cancer cells than normal MCF10A cells
same,EC50,[1]; [5],30.6 µM
"CCCCCc1cc(O)c(C/C=C(\C)CCC=C(C)C)c(O)c1 [CBG, cannabigerol, reference compound]",EC50,"[1]; Homo sapiens, SK-BR-3, 72 h",38.8 µM
"CCCCCc1cc(O)c(C/C=C(\C)CCC=C(C)C)c(O)c1C(=O)OC [CBGA-Me, CBGA methyl ester]",EC50,[3],17 µM
same,EC50,SKMEL28 (melanoma line),17 µM
same,EC50,[4],18 µM
same,relative cytotoxic activity among the esters,"[1]; SKBR3, 48 h and 72 h (FIGS. 1 and 2)",greatest activity
same,activity compared with the corresponding decarboxylated product,"[1]; SKBR3, 72 h for CBGA methyl ester vs CBG",almost twice as active as CBG
same,EC50,[1]; [5],20.2 µM
"CCCCCc1cc2c(c(O)c1C(=O)OC)C1C=C(C)CCC1C(C)(C)O2 (stereo not shown) [THCA-Me, THCA methyl ester]",EC50,[1]; [5],36 µM
